Data as given in PMC4512242 (Nature chemical biology, 2015).

Legend:
LynD = assay: 31P NMR of ATP turnover by LynD; type: biochemical, Lyngbya sp. PCC 8106; conditions: with and without PatE′
E. coli YcaO = conditions: absence of substrate, ref [30]; cited from earlier work

Nc1ncnc2c1ncn2[C@@H]1O[C@H](COP(=O)(O)OP(=O)(O)OP(=O)(O)O)[C@@H](O)[C@H]1O [ATP]
products of ATP turnover (LynD): AMP (not ADP), pyrophosphate (PPi) and phosphate | ATP hydrolysis products (E. coli YcaO): hydrolyzed ATP to AMP and pyrophosphate
